This note sets out measurements from patent US11130756B2, “[1,2,4]Triazolo[4,3-A]pyridinyl substituted indole compounds” (BRISTOL-MYERS SQUIBB COMPANY, priority 2017, dated 2021).

Type in all cases: cell-based
The target of one assay is T1, human TLR9 (Homo sapiens, UniProt Q9NR96).
T1 construct: host or cells: HEK-Blue cells
T1 sequence (Q9NR96 26-1032): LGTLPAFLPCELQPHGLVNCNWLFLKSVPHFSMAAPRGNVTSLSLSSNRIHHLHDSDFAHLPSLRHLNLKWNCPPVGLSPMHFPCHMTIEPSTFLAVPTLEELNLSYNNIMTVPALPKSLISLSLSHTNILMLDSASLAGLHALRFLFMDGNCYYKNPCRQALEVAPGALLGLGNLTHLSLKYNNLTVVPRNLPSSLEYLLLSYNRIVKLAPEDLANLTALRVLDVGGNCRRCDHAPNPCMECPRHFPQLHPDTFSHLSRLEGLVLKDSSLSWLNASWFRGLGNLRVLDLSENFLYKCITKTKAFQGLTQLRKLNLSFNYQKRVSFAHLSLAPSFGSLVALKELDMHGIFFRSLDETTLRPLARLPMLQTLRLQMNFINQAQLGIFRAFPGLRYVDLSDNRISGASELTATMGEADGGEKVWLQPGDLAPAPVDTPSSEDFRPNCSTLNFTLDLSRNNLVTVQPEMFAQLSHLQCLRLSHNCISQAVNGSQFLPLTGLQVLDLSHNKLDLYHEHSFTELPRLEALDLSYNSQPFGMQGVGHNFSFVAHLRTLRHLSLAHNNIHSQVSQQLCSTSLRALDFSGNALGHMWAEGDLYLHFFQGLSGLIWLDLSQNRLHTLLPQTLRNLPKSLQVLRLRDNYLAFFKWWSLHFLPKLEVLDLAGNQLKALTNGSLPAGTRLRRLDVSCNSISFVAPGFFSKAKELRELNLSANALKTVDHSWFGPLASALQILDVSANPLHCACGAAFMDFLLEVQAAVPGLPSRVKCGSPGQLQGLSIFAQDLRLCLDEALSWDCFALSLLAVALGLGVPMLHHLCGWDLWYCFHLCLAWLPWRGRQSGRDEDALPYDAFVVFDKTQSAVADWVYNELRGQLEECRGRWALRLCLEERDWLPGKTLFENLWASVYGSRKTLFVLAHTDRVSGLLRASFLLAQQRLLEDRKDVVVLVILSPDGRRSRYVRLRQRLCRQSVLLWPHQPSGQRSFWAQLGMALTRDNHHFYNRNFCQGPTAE
In words: TLR9 inhibition reporter assay (HEK-Blue, SEAP). Particulars: HEK-Blue cells overexpressing human TLR9, ODN2006 5 nM, 22 hour incubation. Put shortly:
(§1)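 Human TLR7/8/9 HEK-Blue reporter lines; dose range 0.05 nM–50 μM; 30 min RT preincubation; stimulus gardiquimod 7.5 μM / R848 15.9 μM / ODN2006 5 nM respectively; 22 h, 37 °C; SEAP detected colorimetrically.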

The target of another assay is T2, human TLR7 (Homo sapiens, UniProt Q9NYK1).
T2 construct: host or cells: HEK-Blue cells
T2 sequence (Q9NYK1 27-1049): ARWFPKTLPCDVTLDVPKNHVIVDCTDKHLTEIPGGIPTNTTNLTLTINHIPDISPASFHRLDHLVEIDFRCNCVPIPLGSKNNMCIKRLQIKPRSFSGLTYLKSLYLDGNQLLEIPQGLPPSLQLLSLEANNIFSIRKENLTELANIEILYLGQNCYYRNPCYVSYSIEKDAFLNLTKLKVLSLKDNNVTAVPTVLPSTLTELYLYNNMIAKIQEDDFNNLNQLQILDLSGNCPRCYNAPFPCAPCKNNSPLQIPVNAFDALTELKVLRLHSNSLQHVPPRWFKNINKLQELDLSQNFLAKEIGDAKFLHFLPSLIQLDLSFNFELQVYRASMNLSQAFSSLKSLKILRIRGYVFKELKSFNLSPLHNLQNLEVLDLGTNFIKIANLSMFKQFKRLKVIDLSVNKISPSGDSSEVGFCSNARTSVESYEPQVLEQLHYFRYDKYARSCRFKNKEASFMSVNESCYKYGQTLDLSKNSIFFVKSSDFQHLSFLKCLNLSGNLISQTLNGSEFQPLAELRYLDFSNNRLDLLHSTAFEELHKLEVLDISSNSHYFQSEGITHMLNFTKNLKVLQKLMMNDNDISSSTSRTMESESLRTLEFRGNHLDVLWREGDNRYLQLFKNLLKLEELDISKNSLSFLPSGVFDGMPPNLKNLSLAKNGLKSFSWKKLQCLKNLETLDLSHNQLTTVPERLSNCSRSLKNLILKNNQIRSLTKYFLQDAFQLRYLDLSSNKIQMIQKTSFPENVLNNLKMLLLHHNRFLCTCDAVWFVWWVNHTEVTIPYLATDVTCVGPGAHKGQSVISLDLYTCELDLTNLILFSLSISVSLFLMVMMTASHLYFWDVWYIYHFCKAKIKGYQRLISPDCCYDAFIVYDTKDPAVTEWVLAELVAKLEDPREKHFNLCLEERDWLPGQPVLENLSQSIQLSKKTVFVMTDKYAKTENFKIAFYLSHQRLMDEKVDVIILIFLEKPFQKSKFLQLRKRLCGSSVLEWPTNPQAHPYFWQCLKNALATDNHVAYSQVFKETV
As to the kind of experiment: TLR7 inhibition reporter assay (HEK-Blue, SEAP). Particulars: HEK-Blue cells overexpressing human TLR7, gardiquimod 7.5 μM, 22 hour incubation. Put shortly: as §1
(In general: In a reporter assay the amount or activity of a reporter protein is the signal.)

A further assay concerns the target T3, human TLR8 (Homo sapiens, UniProt Q9NR97).
T3 construct: host or cells: HEK-Blue cells
T3 sequence (Q9NR97 27-1041): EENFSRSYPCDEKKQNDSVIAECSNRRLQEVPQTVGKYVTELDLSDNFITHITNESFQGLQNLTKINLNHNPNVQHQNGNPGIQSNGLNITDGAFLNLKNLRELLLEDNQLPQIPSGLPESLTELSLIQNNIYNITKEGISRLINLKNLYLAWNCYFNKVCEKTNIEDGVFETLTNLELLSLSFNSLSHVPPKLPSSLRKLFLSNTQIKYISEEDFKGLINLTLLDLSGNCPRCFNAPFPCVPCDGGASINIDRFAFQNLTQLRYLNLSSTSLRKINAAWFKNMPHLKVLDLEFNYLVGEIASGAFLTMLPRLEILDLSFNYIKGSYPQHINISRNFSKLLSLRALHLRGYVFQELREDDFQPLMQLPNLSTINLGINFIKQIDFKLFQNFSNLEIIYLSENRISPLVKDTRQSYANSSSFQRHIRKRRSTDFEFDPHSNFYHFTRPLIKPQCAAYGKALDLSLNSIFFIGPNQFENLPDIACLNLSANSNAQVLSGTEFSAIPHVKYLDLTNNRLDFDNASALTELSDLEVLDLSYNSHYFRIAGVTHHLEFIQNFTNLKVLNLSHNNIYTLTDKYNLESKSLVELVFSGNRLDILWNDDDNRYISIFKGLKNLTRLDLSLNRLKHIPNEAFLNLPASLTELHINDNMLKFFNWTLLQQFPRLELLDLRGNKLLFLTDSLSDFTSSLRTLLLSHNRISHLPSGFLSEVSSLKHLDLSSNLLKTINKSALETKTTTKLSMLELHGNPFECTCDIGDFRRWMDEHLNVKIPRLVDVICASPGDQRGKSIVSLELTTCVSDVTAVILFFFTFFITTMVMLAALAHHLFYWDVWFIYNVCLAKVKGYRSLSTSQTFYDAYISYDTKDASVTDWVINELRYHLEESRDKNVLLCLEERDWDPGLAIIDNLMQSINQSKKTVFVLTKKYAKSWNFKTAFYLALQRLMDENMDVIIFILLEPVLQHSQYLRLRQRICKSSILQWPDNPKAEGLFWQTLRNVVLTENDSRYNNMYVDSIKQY
As to the kind of experiment: TLR8 inhibition reporter assay (HEK-Blue, SEAP). The following applies: HEK-Blue cells overexpressing human TLR8, R848 15.9 μM, 22 hour incubation. The procedure, abridged: as §1

Structures are written as SMILES.

With `Cc1cc2nncn2cc1-c1[nH]c2ccc(C3CCN(C(=O)CN(C)C)CC3)cc2c1C(C)C` [Example 107, 2-(dimethylamino)-1-(4-(3-isopropyl-2-(7-methyl-[1,2,4]triazolo[4,3-a]pyridin-6-yl)-1H-indol-5-yl)piperidin-1-yl)ethan-1-one], the half-maximal inhibitory concentration (IC50) – broadly, the concentration needed to halve the response being measured – against human TLR9 stood at 0.918 µM; against human TLR7 it was 0.0407 µM; on human TLR8, 0.591 µM.
As to `Cc1c(-c2[nH]c3ccc(C4CCN(C(=O)CN(C)C)CC4)cc3c2C(C)C)ccc2nncn12` [Example 108, 2-(dimethylamino)-1-(4-(3-isopropyl-2-(5-methyl-[1,2,4]triazolo[4,3-a]pyridin-6-yl)-1H-indol-5-yl)piperidin-1-yl)ethan-1-one], the IC50 against human TLR9 is 0.216 µM; on human TLR7, 0.0787 µM; on human TLR8, 0.0304 µM.
In the case of `Cc1c(-c2[nH]c3ccc(C4CC(C)N(CC(=O)N(C)C)C(C)C4)cc3c2C(C)C)cn2cnnc2c1C` (stereo not drawn) [Example 112, 2-(4-(2-(7,8-dimethyl-[1,2,4]triazolo[4,3-a]pyridin-6-yl)-3-isopropyl-1H-indol-5-yl)-2,6-dimethylpiperidin-1-yl)-N,N-dimethylacetamide], the 50% inhibitory concentration (IC50) was found to be 7.42 µM against human TLR9, 0.0206 µM at human TLR7 and 0.121 µM at human TLR8.
In the case of `Cc1c(-c2[nH]c3ccc(C4CC(C)N(C5COC5)C(C)C4)cc3c2C(C)C)cn2cnnc2c1C` (stereo not drawn) [Example 115, 6-(5-(2,6-dimethyl-1-(oxetan-3-yl)piperidin-4-yl)-3-isopropyl-1H-indol-2-yl)-7,8-dimethyl-[1,2,4]triazolo[4,3-a]pyridine], the figures for the IC50 on human TLR9, against human TLR7 and against human TLR8 were 14.6 µM, 0.0056 µM and 0.0297 µM, respectively.
